The source made the active and inactive calls. Cut-off read from the data, not from the text of the source, for most assays here: actives have a measured Kd and inactives only a lower limit.
How the values were obtained:
[1] = biological target: Tyrosine-protein kinase ABL2 (Homo sapiens, UniProt P42684)
[2] = biological target: T1, Beta-adrenergic receptor kinase 1 (Homo sapiens, UniProt P25098)
T1 sequence (P25098 whole entry): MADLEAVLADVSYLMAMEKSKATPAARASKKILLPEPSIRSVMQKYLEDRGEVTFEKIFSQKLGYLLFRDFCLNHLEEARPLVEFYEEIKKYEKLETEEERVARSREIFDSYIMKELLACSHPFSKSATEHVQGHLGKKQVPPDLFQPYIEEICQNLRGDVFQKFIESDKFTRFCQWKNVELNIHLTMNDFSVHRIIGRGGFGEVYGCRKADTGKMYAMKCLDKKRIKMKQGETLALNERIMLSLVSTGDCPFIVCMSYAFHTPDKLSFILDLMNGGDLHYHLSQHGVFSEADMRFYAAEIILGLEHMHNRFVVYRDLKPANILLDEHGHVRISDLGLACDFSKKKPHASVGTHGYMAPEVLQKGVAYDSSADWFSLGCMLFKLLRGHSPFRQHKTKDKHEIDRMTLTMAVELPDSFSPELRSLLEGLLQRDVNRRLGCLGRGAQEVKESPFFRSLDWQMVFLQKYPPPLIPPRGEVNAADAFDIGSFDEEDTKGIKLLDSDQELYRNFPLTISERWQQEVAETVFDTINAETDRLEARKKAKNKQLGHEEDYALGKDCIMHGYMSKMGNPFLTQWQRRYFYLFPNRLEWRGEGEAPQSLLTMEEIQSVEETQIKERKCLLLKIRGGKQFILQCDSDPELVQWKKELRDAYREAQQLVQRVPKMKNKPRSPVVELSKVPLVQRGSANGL

Heme oxygenase 2 = biological target: T2, Heme oxygenase 2 (Homo sapiens, UniProt P30519)
T2 sequence (P30519 whole entry): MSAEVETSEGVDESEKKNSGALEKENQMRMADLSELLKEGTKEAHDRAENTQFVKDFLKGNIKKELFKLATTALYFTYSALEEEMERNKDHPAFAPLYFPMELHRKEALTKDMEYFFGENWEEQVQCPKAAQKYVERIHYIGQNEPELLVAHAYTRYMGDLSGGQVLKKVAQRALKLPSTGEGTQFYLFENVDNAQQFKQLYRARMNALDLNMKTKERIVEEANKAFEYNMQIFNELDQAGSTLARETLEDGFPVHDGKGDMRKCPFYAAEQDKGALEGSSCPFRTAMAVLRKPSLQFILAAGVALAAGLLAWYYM

[3] = biological target: T3, Inhibitor of nuclear factor kappa-B kinase subunit epsilon (Homo sapiens, UniProt Q14164)
T3 sequence (Q14164 whole entry): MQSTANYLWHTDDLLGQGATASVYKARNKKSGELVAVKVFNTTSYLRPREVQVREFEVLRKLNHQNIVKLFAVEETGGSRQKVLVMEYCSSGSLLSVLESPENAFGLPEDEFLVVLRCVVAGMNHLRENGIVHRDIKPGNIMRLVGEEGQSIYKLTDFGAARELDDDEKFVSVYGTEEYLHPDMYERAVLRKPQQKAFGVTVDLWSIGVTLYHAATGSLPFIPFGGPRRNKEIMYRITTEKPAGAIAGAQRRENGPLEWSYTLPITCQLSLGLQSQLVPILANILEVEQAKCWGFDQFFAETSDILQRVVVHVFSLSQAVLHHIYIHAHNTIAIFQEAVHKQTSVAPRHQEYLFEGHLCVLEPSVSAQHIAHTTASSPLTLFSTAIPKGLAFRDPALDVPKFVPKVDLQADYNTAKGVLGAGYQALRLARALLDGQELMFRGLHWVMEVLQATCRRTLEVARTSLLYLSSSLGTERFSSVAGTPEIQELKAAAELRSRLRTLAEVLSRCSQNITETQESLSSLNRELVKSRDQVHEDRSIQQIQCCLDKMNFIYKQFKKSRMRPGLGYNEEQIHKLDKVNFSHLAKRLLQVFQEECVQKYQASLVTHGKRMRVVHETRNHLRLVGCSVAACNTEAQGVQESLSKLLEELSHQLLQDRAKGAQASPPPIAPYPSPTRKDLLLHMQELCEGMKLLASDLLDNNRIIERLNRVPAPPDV

[4] = biological target: T4, Serine/threonine-protein kinase Nek9 (Homo sapiens, UniProt Q8TD19)
T4 sequence (Q8TD19 whole entry): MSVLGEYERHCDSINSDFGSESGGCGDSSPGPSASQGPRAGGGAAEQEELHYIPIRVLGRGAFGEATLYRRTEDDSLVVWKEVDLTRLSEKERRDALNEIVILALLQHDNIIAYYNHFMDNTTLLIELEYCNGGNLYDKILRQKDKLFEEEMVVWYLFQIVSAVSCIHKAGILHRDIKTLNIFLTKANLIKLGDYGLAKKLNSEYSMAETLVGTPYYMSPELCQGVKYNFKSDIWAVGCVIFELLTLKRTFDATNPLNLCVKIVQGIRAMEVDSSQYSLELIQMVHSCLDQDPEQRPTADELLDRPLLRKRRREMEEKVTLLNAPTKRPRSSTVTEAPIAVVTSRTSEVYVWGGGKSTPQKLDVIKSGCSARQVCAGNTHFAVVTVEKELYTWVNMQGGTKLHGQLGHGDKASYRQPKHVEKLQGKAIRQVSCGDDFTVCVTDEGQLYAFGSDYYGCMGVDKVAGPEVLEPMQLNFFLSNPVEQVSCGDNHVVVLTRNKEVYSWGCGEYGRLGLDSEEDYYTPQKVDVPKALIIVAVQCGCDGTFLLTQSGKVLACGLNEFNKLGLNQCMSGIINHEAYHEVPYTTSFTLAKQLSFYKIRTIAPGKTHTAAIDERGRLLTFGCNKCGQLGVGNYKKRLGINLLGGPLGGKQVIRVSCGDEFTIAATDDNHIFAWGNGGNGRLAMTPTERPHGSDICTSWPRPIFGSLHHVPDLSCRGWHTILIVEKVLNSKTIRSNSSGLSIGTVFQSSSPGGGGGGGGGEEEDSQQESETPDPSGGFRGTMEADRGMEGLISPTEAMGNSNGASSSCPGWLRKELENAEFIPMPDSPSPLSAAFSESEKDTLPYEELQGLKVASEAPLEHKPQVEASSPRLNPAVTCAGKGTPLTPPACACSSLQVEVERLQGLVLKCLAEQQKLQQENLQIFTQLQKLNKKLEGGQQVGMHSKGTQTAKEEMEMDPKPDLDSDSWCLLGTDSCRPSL

Obg-like ATPase 1 = Obg-like ATPase 1 (Homo sapiens, UniProt Q9NTK5)
Sequence of Obg-like ATPase 1 (Q9NTK5 whole entry, looked up): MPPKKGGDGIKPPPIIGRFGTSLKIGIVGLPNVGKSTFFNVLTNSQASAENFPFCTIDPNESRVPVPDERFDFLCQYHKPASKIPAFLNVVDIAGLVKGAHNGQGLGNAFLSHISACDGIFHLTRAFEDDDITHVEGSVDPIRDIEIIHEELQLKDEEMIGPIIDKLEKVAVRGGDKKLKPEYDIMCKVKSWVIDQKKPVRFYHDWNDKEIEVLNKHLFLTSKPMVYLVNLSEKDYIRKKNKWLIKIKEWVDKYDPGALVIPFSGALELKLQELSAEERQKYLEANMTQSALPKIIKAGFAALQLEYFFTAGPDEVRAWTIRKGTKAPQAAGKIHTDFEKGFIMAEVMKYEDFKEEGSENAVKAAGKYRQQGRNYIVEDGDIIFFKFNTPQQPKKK

[5] = biological target: Platelet-derived growth factor receptor beta (Homo sapiens, UniProt P09619)
Sequence of Platelet-derived growth factor receptor beta (P09619 whole entry): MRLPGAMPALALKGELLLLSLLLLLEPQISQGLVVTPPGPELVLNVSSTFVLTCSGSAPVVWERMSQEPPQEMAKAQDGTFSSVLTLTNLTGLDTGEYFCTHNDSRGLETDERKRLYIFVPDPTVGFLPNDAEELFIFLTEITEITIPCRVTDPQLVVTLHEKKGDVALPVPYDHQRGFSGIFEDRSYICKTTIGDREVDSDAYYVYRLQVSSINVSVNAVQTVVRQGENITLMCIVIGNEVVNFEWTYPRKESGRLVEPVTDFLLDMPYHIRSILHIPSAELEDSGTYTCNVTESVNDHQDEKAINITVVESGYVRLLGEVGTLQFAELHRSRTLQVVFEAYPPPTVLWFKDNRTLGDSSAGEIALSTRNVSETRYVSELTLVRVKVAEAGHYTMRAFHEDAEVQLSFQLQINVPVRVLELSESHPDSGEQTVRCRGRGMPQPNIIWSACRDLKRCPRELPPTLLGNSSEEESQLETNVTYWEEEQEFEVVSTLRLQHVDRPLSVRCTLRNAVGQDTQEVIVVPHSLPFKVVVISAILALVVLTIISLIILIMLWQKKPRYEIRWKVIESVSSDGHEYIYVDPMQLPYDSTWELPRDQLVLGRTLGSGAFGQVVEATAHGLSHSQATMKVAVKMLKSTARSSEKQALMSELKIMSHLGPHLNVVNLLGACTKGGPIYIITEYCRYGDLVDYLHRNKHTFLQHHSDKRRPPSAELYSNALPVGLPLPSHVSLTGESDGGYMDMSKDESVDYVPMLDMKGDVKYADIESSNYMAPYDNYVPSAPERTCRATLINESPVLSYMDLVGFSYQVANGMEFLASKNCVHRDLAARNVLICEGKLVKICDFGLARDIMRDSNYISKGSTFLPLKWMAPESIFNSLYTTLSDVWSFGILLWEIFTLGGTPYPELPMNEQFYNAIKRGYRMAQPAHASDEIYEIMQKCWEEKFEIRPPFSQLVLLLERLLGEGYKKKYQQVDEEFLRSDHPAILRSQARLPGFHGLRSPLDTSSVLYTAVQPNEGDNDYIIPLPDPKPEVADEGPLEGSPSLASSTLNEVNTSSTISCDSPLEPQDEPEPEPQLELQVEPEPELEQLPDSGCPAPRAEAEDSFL

[6] = biological target: 5'-AMP-activated protein kinase catalytic subunit alpha-1 (Homo sapiens, UniProt Q13131)
Sequence of 5'-AMP-activated protein kinase catalytic subunit alpha-1 (Q13131 whole entry): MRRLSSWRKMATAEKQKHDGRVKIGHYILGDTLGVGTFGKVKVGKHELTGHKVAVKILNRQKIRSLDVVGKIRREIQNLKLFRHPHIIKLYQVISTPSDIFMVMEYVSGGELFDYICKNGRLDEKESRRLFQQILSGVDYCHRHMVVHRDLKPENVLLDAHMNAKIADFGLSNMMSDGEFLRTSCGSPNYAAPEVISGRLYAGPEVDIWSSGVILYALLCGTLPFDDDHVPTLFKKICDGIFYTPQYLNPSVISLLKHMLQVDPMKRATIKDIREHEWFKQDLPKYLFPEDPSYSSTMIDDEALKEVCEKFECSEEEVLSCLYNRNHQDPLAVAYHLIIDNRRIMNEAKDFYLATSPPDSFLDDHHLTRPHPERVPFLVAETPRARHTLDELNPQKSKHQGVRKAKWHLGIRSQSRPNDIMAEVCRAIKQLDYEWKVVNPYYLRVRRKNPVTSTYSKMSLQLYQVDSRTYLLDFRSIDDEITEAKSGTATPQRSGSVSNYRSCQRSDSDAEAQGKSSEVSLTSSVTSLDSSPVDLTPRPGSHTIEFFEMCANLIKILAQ
Note: in the data inactive means no Kd found up to 30 µM.

Sequence of Tyrosine-protein kinase ABL2 (P42684 whole entry): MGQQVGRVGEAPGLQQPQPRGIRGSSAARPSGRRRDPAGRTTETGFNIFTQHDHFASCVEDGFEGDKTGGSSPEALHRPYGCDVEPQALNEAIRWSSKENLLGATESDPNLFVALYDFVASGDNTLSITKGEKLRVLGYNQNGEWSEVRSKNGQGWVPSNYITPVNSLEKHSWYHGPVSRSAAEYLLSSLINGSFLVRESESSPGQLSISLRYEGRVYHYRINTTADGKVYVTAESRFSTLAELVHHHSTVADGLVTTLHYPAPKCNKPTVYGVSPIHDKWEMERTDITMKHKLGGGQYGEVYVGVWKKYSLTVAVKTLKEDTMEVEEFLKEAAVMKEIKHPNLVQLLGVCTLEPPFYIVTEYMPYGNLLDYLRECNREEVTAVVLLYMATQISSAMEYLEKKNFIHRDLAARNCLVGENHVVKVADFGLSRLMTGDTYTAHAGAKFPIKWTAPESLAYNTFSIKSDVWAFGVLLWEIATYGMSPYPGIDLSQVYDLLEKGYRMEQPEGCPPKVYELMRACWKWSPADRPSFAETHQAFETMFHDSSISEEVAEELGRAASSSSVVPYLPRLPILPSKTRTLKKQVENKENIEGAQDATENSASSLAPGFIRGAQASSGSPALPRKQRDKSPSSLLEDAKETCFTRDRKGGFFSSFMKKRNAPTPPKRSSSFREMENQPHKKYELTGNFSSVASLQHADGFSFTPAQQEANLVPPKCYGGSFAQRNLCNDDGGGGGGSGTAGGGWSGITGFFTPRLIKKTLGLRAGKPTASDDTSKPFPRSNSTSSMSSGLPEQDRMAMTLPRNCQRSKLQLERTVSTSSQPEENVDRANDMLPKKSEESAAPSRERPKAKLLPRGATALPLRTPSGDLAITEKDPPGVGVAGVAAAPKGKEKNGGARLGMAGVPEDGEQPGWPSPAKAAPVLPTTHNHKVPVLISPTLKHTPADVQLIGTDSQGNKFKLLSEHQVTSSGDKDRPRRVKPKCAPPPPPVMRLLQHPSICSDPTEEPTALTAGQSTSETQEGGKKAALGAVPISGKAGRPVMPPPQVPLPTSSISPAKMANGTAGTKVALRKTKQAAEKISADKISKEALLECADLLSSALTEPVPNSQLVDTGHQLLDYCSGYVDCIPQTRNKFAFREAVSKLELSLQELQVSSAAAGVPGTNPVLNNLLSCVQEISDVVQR

CCCCCCCCCCCCCCCCCCOP(=O)([O-])OC1CC[N+](C)(C)CC1 [PERIFOSINE]
Kd [1]: > 30 µM (inactive) | Kd [2]: > 30 µM (inactive) | Kd (Heme oxygenase 2): > 30 µM (inactive) | Kd [3]: > 30 µM (inactive) | Kd [4]: > 30 µM (inactive) | Kd (Obg-like ATPase 1): > 30 µM (inactive) | Kd [5]: > 30 µM (inactive) | Kd [6]: > 30 µM (inactive)

Cc1nc(Nc2n[nH]c3c2CN(C(=O)N[C@H](CN(C)C)c2ccccc2)C3(C)C)c2sccc2n1 [PF-03758309]
Kd [1]: 0.939 µM (active) | Kd [2]: 22.5 µM (active) | Kd (Heme oxygenase 2): > 30 µM (inactive) | Kd [3]: 0.658 µM (active) | Kd [4]: > 30 µM (inactive) | Kd (Obg-like ATPase 1): > 30 µM (inactive) | Kd [5]: 29.7 µM | Kd [6]: 0.006 µM (active)

Cc1cnc(NC(=O)Nc2cc(Br)c(C)cc2OC[C@@H]2CNCCO2)cn1 [RABUSERTIB]
Kd [1]: > 30 µM (inactive) | Kd [2]: > 30 µM (inactive) | Kd (Heme oxygenase 2): > 30 µM (inactive) | Kd [3]: > 30 µM (inactive) | Kd [4]: > 30 µM (inactive) | Kd (Obg-like ATPase 1): > 30 µM (inactive) | Kd [5]: > 30 µM (inactive) | Kd [6]: > 30 µM (inactive)

N#CC1(c2ccc(NC(=O)c3cccnc3NCc3ccncc3)cc2)CCCC1 [RIVOCERANIB]
Kd [1]: > 30 µM (inactive) | Kd [2]: > 30 µM (inactive) | Kd (Heme oxygenase 2): > 30 µM (inactive) | Kd [3]: > 30 µM (inactive) | Kd [4]: > 30 µM (inactive) | Kd (Obg-like ATPase 1): > 30 µM (inactive) | Kd [5]: > 30 µM (inactive) | Kd [6]: > 30 µM (inactive)

O=c1[nH]ccc2cc(OC3CCNCC3)ccc12 [SAR-407899 FREE BASE]
Kd [1]: > 30 µM (inactive) | Kd [2]: > 30 µM (inactive) | Kd (Heme oxygenase 2): > 30 µM (inactive) | Kd [3]: > 30 µM (inactive) | Kd [4]: > 30 µM (inactive) | Kd (Obg-like ATPase 1): > 30 µM (inactive) | Kd [5]: > 30 µM (inactive) | Kd [6]: > 30 µM (inactive)

Cn1cc(-c2cnn3c(N)c(Br)c([C@@H]4CCCNC4)nc23)cn1 [SCH-900776]
Kd [1]: > 30 µM (inactive) | Kd [2]: > 30 µM (inactive) | Kd (Heme oxygenase 2): > 30 µM (inactive) | Kd [3]: > 30 µM (inactive) | Kd [4]: > 30 µM (inactive) | Kd (Obg-like ATPase 1): > 30 µM (inactive) | Kd [5]: > 30 µM (inactive) | Kd [6]: > 30 µM (inactive)

CO[C@H]1C[C@@H]2CC[C@@H](C)[C@@](O)(O2)C(=O)C(=O)N2CCCC[C@H]2C(=O)O[C@H]([C@H](C)C[C@@H]2CC[C@@H](O)[C@H](OC)C2)CC(=O)[C@H](C)/C=C(\C)[C@@H](O)[C@@H](OC)C(=O)[C@H](C)C[C@H](C)/C=C/C=C/C=C/1C [SIROLIMUS]
Kd [1]: > 30 µM (inactive) | Kd [2]: > 30 µM (inactive) | Kd (Heme oxygenase 2): > 30 µM (inactive) | Kd [3]: > 30 µM (inactive) | Kd [4]: > 30 µM (inactive) | Kd (Obg-like ATPase 1): > 30 µM (inactive) | Kd [5]: > 30 µM (inactive) | Kd [6]: > 30 µM (inactive)

CO[C@H]1C[C@@H]2CC[C@@H](C)[C@@](O)(O2)C(=O)C(=O)N2CCCC[C@H]2C(=O)O[C@H]([C@H](C)C[C@@H]2CC[C@@H](OC(=O)C(C)(CO)CO)[C@H](OC)C2)CC(=O)[C@H](C)/C=C(\C)[C@@H](O)[C@@H](OC)C(=O)[C@H](C)C[C@H](C)/C=C/C=C/C=C/1C [TEMSIROLIMUS]
Kd [1]: > 30 µM (inactive) | Kd [2]: > 30 µM (inactive) | Kd (Heme oxygenase 2): > 30 µM (inactive) | Kd [3]: > 30 µM (inactive) | Kd [4]: > 30 µM (inactive) | Kd (Obg-like ATPase 1): > 30 µM (inactive) | Kd [5]: > 30 µM (inactive) | Kd [6]: > 30 µM (inactive)

COc1cc2c(Nc3ccc(Cl)c(Cl)c3F)ncnc2cc1OC[C@@H]1C[C@@H]2CN(C)C[C@@H]2C1 [TESEVATINIB]
Kd [1]: 0.628 µM (active) | Kd [2]: > 30 µM (inactive) | Kd (Heme oxygenase 2): > 30 µM (inactive) | Kd [3]: > 30 µM (inactive) | Kd [4]: > 30 µM (inactive) | Kd (Obg-like ATPase 1): > 30 µM (inactive) | Kd [5]: > 30 µM (inactive) | Kd [6]: > 30 µM (inactive)

O=C(Cc1ccc(-c2ccc(OCCN3CCOCC3)cc2)cn1)NCc1ccccc1 [TIRBANIBULIN]
Kd [1]: > 30 µM (inactive) | Kd [2]: > 30 µM (inactive) | Kd (Heme oxygenase 2): > 30 µM (inactive) | Kd [3]: > 30 µM (inactive) | Kd [4]: > 30 µM (inactive) | Kd (Obg-like ATPase 1): > 30 µM (inactive) | Kd [5]: > 30 µM (inactive) | Kd [6]: > 30 µM (inactive)

O=C1NC(=O)[C@@H](c2cn3c4c(cccc24)CCC3)[C@@H]1c1c[nH]c2ccccc12 [TIVANTINIB]
Kd [1]: > 30 µM (inactive) | Kd [2]: > 30 µM (inactive) | Kd (Heme oxygenase 2): 0.119 µM | Kd [3]: > 30 µM (inactive) | Kd [4]: > 30 µM (inactive) | Kd (Obg-like ATPase 1): > 30 µM (inactive) | Kd [5]: > 30 µM (inactive) | Kd [6]: > 30 µM (inactive)

C[C@@H](NC(=O)c1ncnc(N)c1Cl)c1ncc(C(=O)Nc2cc(C(F)(F)F)c(Cl)cn2)s1 [TOVORAFENIB]
Kd [1]: 0.099 µM (active) | Kd [2]: > 30 µM (inactive) | Kd (Heme oxygenase 2): > 30 µM (inactive) | Kd [3]: > 30 µM (inactive) | Kd [4]: > 30 µM (inactive) | Kd (Obg-like ATPase 1): > 30 µM (inactive) | Kd [5]: 11.1 µM (active) | Kd [6]: > 30 µM (inactive)

Cc1cc(Nc2ncnc3ccc(NC4=NC(C)(C)CO4)cc23)ccc1Oc1ccn2ncnc2c1 [TUCATINIB]
Kd [1]: > 30 µM (inactive) | Kd [2]: > 30 µM (inactive) | Kd (Heme oxygenase 2): > 30 µM (inactive) | Kd [3]: > 30 µM (inactive) | Kd [4]: > 30 µM (inactive) | Kd (Obg-like ATPase 1): > 30 µM (inactive) | Kd [5]: > 30 µM (inactive) | Kd [6]: > 30 µM (inactive)

C[C@@H](N)c1ccc(C(=O)Nc2ccnc3[nH]ccc23)cc1 [Y-39983]
Kd [1]: > 30 µM (inactive) | Kd [2]: > 30 µM (inactive) | Kd (Heme oxygenase 2): > 30 µM (inactive) | Kd [3]: > 30 µM (inactive) | Kd [4]: > 30 µM (inactive) | Kd (Obg-like ATPase 1): > 30 µM (inactive) | Kd [5]: > 30 µM (inactive) | Kd [6]: > 30 µM (inactive)

Reference: ChEMBL document CHEMBL3991601, “The target landscape of clinical kinase drugs” (Science, 2017)
